Data: PubChem BioAssay AID1918952 (Molecular Pharmacology Branch, DTP, NCI, 2023)

Test system: LG0703-F948-PDC complex spheroid viability
Assay: Anticancer human tumor LG0703-F948-PDC patient-derived lung adenocarcinoma cell line growth inhibition
Conditions: for IC50: curve of first compound; for viability, T/C: stronger effect = lower value
Method in brief: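 Multicellular complex spheroids of tumor cells with human endothelial cells (HUVEC) and mesenchymal stem cells; the LSD1 inhibitor iadademstat was combined with standard-of-care or investigational agents. Top concentration at or near clinical Cmax, half-log dilutions; final DMSO ≤0.25%.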

[1] = second compound 0.1 µM, first compound 0.000949 µM
[2] = second compound 0.1 µM, first compound 0.003 µM
[3] = second compound 0.1 µM, first compound 0.00949 µM
[4] = second compound 0.1 µM, first compound 0.03 µM
[5] = second compound 0.1 µM, first compound 0.0949 µM
[6] = second compound 0.1 µM, first compound 0.3 µM
[7] = second compound 0.316 µM, first compound 0.000949 µM
[8] = second compound 0.316 µM, first compound 0.003 µM
[9] = second compound 0.316 µM, first compound 0.00949 µM
[10] = second compound 0.316 µM, first compound 0.03 µM
[11] = second compound 0.316 µM, first compound 0.0949 µM
[12] = second compound 0.316 µM, first compound 0.3 µM
[13] = second compound 1 µM, first compound 0.000949 µM
[14] = second compound 1 µM, first compound 0.003 µM
[15] = second compound 1 µM, first compound 0.00949 µM
[16] = second compound 1 µM, first compound 0.03 µM
[17] = second compound 1 µM, first compound 0.0949 µM
[18] = second compound 1 µM, first compound 0.3 µM
[19] = second compound 3.16 µM, first compound 0.000949 µM
[20] = second compound 3.16 µM, first compound 0.003 µM
[21] = second compound 3.16 µM, first compound 0.00949 µM
[22] = second compound 3.16 µM, first compound 0.03 µM
[23] = second compound 3.16 µM, first compound 0.0949 µM
[24] = second compound 3.16 µM, first compound 0.3 µM
[25] = second compound 10 µM, first compound 0.000949 µM
[26] = second compound 10 µM, first compound 0.003 µM
[27] = second compound 10 µM, first compound 0.00949 µM
[28] = second compound 10 µM, first compound 0.03 µM
[29] = second compound 10 µM, first compound 0.0949 µM
[30] = second compound 10 µM, first compound 0.3 µM
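Further: spheroids exposed to agents for seven days before readout.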
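Wherever viability, T/C is given: 100% = DMSO vehicle control wells as normalization base.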

SMILES: CC[C@@]1(O)C(=O)OCc2c1cc1n(c2=O)Cc2cc3c(CN(C)C)c(O)ccc3nc2-1 + NC1CCC(NC2CC2c2ccccc2)CC1
- IC50 (second compound 0.1 µM): > 100 nM
- IC50 (second compound 0.316 µM): > 100 nM
- IC50 (second compound 1 µM): > 100 nM
- IC50 (second compound 3.16 µM): > 100 nM
- IC50 (second compound 10 µM): > 100 nM
- viability, T/C (second compound 0.1 µM, first compound 0.000316 µM): 103%
- viability, T/C (second compound 0.1 µM, first compound 0.001 µM): 129%
- viability, T/C (second compound 0.1 µM, first compound 0.00316 µM): 110%
- viability, T/C (second compound 0.1 µM, first compound 0.01 µM): 87.4%
- viability, T/C (second compound 0.1 µM, first compound 0.0316 µM): 64.8%
- viability, T/C (second compound 0.1 µM, first compound 0.1 µM): 52.8%
- viability, T/C (second compound 0.316 µM, first compound 0.000316 µM): 117%
- viability, T/C (second compound 0.316 µM, first compound 0.001 µM): 111%
- viability, T/C (second compound 0.316 µM, first compound 0.00316 µM): 104%
- viability, T/C (second compound 0.316 µM, first compound 0.01 µM): 95.8%
- viability, T/C (second compound 0.316 µM, first compound 0.0316 µM): 78.2%
- viability, T/C (second compound 0.316 µM, first compound 0.1 µM): 63%
- viability, T/C (second compound 1 µM, first compound 0.000316 µM): 128%
- viability, T/C (second compound 1 µM, first compound 0.001 µM): 132%
- viability, T/C (second compound 1 µM, first compound 0.00316 µM): 122%
- viability, T/C (second compound 1 µM, first compound 0.01 µM): 101%
- viability, T/C (second compound 1 µM, first compound 0.0316 µM): 77.7%
- viability, T/C (second compound 1 µM, first compound 0.1 µM): 61.9%
- viability, T/C (second compound 3.16 µM, first compound 0.000316 µM): 110%
- viability, T/C (second compound 3.16 µM, first compound 0.001 µM): 134%
- viability, T/C (second compound 3.16 µM, first compound 0.00316 µM): 117%
- viability, T/C (second compound 3.16 µM, first compound 0.01 µM): 101%
- viability, T/C (second compound 3.16 µM, first compound 0.0316 µM): 98.4%
- viability, T/C (second compound 3.16 µM, first compound 0.1 µM): 69.6%
- viability, T/C (second compound 10 µM, first compound 0.000316 µM): 130%
- viability, T/C (second compound 10 µM, first compound 0.001 µM): 123%
- viability, T/C (second compound 10 µM, first compound 0.00316 µM): 115%
- viability, T/C (second compound 10 µM, first compound 0.01 µM): 96.6%
- viability, T/C (second compound 10 µM, first compound 0.0316 µM): 96.8%
- viability, T/C (second compound 10 µM, first compound 0.1 µM): 84.5%

SMILES: CCc1c2c(nc3ccc(O)cc13)-c1cc3c(c(=O)n1C2)COC(=O)[C@]3(O)CC + NC1CCC(NC2CC2c2ccccc2)CC1
- IC50 (second compound 0.1 µM): 1.31 nM
- IC50 (second compound 0.316 µM): 1.87 nM
- IC50 (second compound 1 µM): 1.89 nM
- IC50 (second compound 3.16 µM): 3.61 nM
- IC50 (second compound 10 µM): 5.11 nM
- viability, T/C [1]: 55.8%
- viability, T/C [2]: 36.4%
- viability, T/C [3]: 23.9%
- viability, T/C [4]: 15%
- viability, T/C [5]: 8.81%
- viability, T/C [6]: 4.02%
- viability, T/C [7]: 63.7%
- viability, T/C [8]: 40.2%
- viability, T/C [9]: 24.8%
- viability, T/C [10]: 15.1%
- viability, T/C [11]: 7.91%
- viability, T/C [12]: 3.79%
- viability, T/C [13]: 62.8%
- viability, T/C [14]: 40.8%
- viability, T/C [15]: 27.6%
- viability, T/C [16]: 15.9%
- viability, T/C [17]: 7.93%
- viability, T/C [18]: 3.95%
- viability, T/C [19]: 64.8%
- viability, T/C [20]: 52.5%
- viability, T/C [21]: 35.3%
- viability, T/C [22]: 18.1%
- viability, T/C [23]: 7.91%
- viability, T/C [24]: 4.52%
- viability, T/C [25]: 78.8%
- viability, T/C [26]: 59%
- viability, T/C [27]: 39.6%
- viability, T/C [28]: 19.9%
- viability, T/C [29]: 8.18%
- viability, T/C [30]: 3.7%

SMILES: COc1cc(C2c3cc4c(cc3C(OC3OC5COC(C)OC5C(O)C3O)C3COC(=O)C23)OCO4)cc(OC)c1O (stereo not given) + NC1CCC(NC2CC2c2ccccc2)CC1
- IC50 (second compound 0.1 µM): > 3000 nM
- IC50 (second compound 0.316 µM): > 3000 nM
- IC50 (second compound 1 µM): > 3000 nM
- IC50 (second compound 3.16 µM): > 3000 nM
- IC50 (second compound 10 µM): > 3000 nM
- viability, T/C [3]: 99.9%
- viability, T/C [4]: 104%
- viability, T/C [5]: 94.8%
- viability, T/C [6]: 87.6%
- viability, T/C (second compound 0.1 µM, first compound 0.949 µM): 72.2%
- viability, T/C (second compound 0.1 µM, first compound 3 µM): 58.2%
- viability, T/C [9]: 106%
- viability, T/C [10]: 108%
- viability, T/C [11]: 90.7%
- viability, T/C [12]: 87.6%
- viability, T/C (second compound 0.316 µM, first compound 0.949 µM): 77.8%
- viability, T/C (second compound 0.316 µM, first compound 3 µM): 65%
- viability, T/C [15]: 113%
- viability, T/C [16]: 127%
- viability, T/C [17]: 108%
- viability, T/C [18]: 99.3%
- viability, T/C (second compound 1 µM, first compound 0.949 µM): 91.4%
- viability, T/C (second compound 1 µM, first compound 3 µM): 73.7%
- viability, T/C [21]: 120%
- viability, T/C [22]: 105%
- viability, T/C [23]: 112%
- viability, T/C [24]: 108%
- viability, T/C (second compound 3.16 µM, first compound 0.949 µM): 98.5%
- viability, T/C (second compound 3.16 µM, first compound 3 µM): 86.8%
- viability, T/C [27]: 104%
- viability, T/C [28]: 115%
- viability, T/C [29]: 118%
- viability, T/C [30]: 86.2%
- viability, T/C (second compound 10 µM, first compound 0.949 µM): 97.5%
- viability, T/C (second compound 10 µM, first compound 3 µM): 81.4%

SMILES: Nc1ccn(C2OC(CO)C(O)C2(F)F)c(=O)n1 (stereo not given) + NC1CCC(NC2CC2c2ccccc2)CC1
- IC50 (second compound 0.1 µM): 3.35 nM
- IC50 (second compound 0.316 µM): 4.37 nM
- IC50 (second compound 1 µM): 15.2 nM
- IC50 (second compound 3.16 µM): 24.4 nM
- IC50 (second compound 10 µM): 19.3 nM
- viability, T/C [1]: 68.9%
- viability, T/C [2]: 50.5%
- viability, T/C [3]: 41.8%
- viability, T/C [4]: 44%
- viability, T/C [5]: 39.1%
- viability, T/C [6]: 36.8%
- viability, T/C [7]: 67.5%
- viability, T/C [8]: 52.3%
- viability, T/C [9]: 45.3%
- viability, T/C [10]: 41.1%
- viability, T/C [11]: 44.2%
- viability, T/C [12]: 38.6%
- viability, T/C [13]: 74.6%
- viability, T/C [14]: 56.1%
- viability, T/C [15]: 55%
- viability, T/C [16]: 46.4%
- viability, T/C [17]: 48.1%
- viability, T/C [18]: 37.2%
- viability, T/C [19]: 86.8%
- viability, T/C [20]: 65.8%
- viability, T/C [21]: 54.1%
- viability, T/C [22]: 51.5%
- viability, T/C [23]: 45.1%
- viability, T/C [24]: 43.6%
- viability, T/C [25]: 83.1%
- viability, T/C [26]: 56.8%
- viability, T/C [27]: 56.8%
- viability, T/C [28]: 49%
- viability, T/C [29]: 51.1%
- viability, T/C [30]: 42.2%
